Measured values reported in patent US9428507B2, “Compounds for the treatment of malaria” (The Broad Institute, Inc., priority 2013, dated 2016).
Like-named read-outs stand apart in the source and are kept apart here.

System: Dd2 strain of P. falciparum
Assay: Activity against the Dd2 strain of P. falciparum (SYBR Green I, 72-h incubation)
Format: cell-based
Conditions: read-out: EC^50 Dd2
Method: The Dd2 strain of P. falciparum was cultured in complete medium (RPMI with L-glutamine, 4.3% heat-inactivated O-positive human serum, 2.08 mg/ml albumax, 0.013 mg/ml hypoxanthine, 1.17 mg/ml glucose, 0.18% NaHCO3, 0.031 M Hepes, 2.60 mM NaOH, and 0.043 mg/ml gentamicin) until the parasitemia reached 3-8%. Parasitemia was determined by checking at least 500 red blood cells from a Giemsa-stained blood smear. The Dd2 cultures along with tested O-positive red blood cells are centrifuged at room temperature at 2,000 rpm for 5 min using an Eppendorf centrifuge 581 OR with an A-4-81 rotor. The medium was aspirated off. For the compound screening, a parasite dilution at a 1% parasitemia and 1.0% hematocrit was created with screening medium (RPMI with L-glutamine, 4.16 mg/ml albumax II, 0.013 mg/ml hypoxanthine, 1.73 mg/ml glucose, 0.18% NaHCO3, 0.031M Hepes, 2.60 mM NaOH, and 0.043 mg/ml gentamicin). The suspension was gassed with 93% nitrogen, 4% carbon dioxide, and 3% oxygen and placed at 37° C. until needed. Using a liquid dispenser, 20 μl of screening medium was dispensed into 384-well, black, clear-bottom plates. With a PinTool, 100 nl of compounds dissolved in DMSO was transferred into the assay plates along with control compound (mefloquine). Next, 30 μl of the parasite suspension in screening medium was then dispensed into the assay plates such that the final parasitemia was 1%, and the final hematocrit was 1.0%. Final concentration of DMSO was 0.125%. Mefloquine at a final concentration of 20 μM and DMSO at a final concentration of 0.125% were used within the assay plates to serve as background and baseline controls, respectively. The assay plates were transferred to incubators (93% nitrogen, 4% carbon dioxide, and 3% oxygen during the 72-h incubation at 37° C.). Ten microliters of detection reagent consisting of 1 OX SYBR Green I (Invitrogen; supplied in 10,000× concentration) in lysis buffer (20 mM Tris-HCl, 5 mM EDTA, 0.16% Saponin wt/vol, 1.6% Triton X vol/vol) was dispensed into the assay plates. For optimal staining, the assay plates were left at room temperature for 24 h in the dark. The assay plates were read by using an Envision (PerkinElmer) reader, with 505 dichroic mirrors with 485-nm excitation and 530-nm emission settings, and the plate reads were from the bottom.

[1] = Plasmodium falciparum, DD2, 72 h

EC50 [1] | SMILES | EC50
2400 nM | C=CCOC(=O)N1CC2(CCN(C(=O)Nc3ccccc3F)CC2)c2c([nH]c3cc(OC)ccc23)[C@@H]1CO [Compound 16, (R)-allyl 1-((2-fluorophenyl)carbamoyl)-1′-(hydroxymethyl)-7′-methoxy-3′,9′-dihydrospiro[piperidine-4,4′-pyrido[3,4-b]indole]-2′(1′H)-carboxylate] | –
214 to 236 nM | COc1ccc2c3c([nH]c2c1)[C@H](C)N(C(C)=O)CC31CCN(C(=O)Nc2ccccc2F)CC1 [Compound 48, (S)-2-acetyl-N-(2-fluorophenyl)-7′-methoxy-1'-methyl-1′,2′,3′,9′-tetrahydrospiro[piperidine-4,4′-pyrido[3,4-b]indole]-1-carboxamide] | –
2530 nM | COc1cccc(S(=O)(=O)N2CCC3(CC2)CN[C@H](CO)c2[nH]c4cc(OC)ccc4c23)c1 [Compound 84, (S)-(7′-methoxy-1-((3-methoxyphenyl)sulfonyl)-1′,2′,3′,9′-tetrahydrospiro [piperidine-4,4′-pyrido[3,4-b]indol]-1′-yl)methanol] | –
5760 nM | COc1ccc2c3c([nH]c2c1)[C@H](CO)N(C(C)=O)CC31CCN(c2nc3ccccc3s2)CC1 [Compound 137, (R)-1-(1-(benzo[d]thiazol-2-yl)-1′-(hydroxymethyl)-7′-methoxyspiro [piperidine-4,4′-pyrido[3,4-b]indol]-2′(1′H,3′H,9′H)-yl) ethanone] | –
10700 nM | COc1ccc2c3c([nH]c2c1)[C@H](CO)N(C(C)=O)CC31CCNCC1 [Compound 4, (R)-1-(1′-(hydroxymethyl)-7′-methoxyspiro [piperidine-4,4′-pyrido[3,4-b]indol]-2′(1′H,3′H,9′H)-yl)ethanone] | –
1460 to 2890 nM | COc1ccc2c3c([nH]c2c1)[C@H](CO)N(C(C)=O)CC31CCN(S(=O)(=O)c2ccccc2F)CC1 [Compound 59, (R)-1-(1-((2-fluorophenyl)sulfonyl)-1′-(hydroxymethyl)-7′-methoxyspiro[piperidine-4,4′-pyrido[3,4-b]indol]-2′(1′H,3′H,9′H)-yl)ethanone] | –
918 to 2270 nM | COc1ccc2c3c([nH]c2c1)[C@H](CO)N(C(C)=O)CC31CCN(C(=O)Nc2ccccn2)CC1 [Compound 68, (R)-2′-acety1-1′-(hydroxymethyl)-7′-methoxy-N-(pyridin-2-yl)-1′,2′,3′,9′-tetrahydrospiro[piperidine-4,4′-pyrido[3,4-b]indole]-1-carboxamide] | –
1610 nM | COc1ccc2c3c([nH]c2c1)[C@H](CO)N(C(=O)C(F)(F)F)CC31CCN(C(=O)Nc2ccccc2F)CC1 [Compound 3, (R)-N-(2-fluorophenyl)-1′-(hydroxymethyl)-7′-methoxy-2′-(2,2,2-trifluoroacetyl)-1′,2′,3′,9′-tetrahydrospiro[piperidine-4,4′-pyrido[3,4-b]indole]-1-carboxamide] | –
1700 to 2920 nM | COc1ccc2c3c([nH]c2c1)[C@H](CO)N(C(C)=O)CC31CCN(C(=O)N(C)c2ccccc2F)CC1 [Compound 63, (R)-2′-acetyl-N-(2-fluorophenyl)-1′-(hydroxymethyl)-7′-methoxy-N-methyl-1′,2′,3′,9′-tetrahydrospiro[piperidine-4,4′-pyrido[3,4-b]indole]-1-carboxamide] | –
951 nM | COc1ccc2c3c(n(C)c2c1)[C@H](CO)N(C(=O)Nc1ccc(F)cc1)CC31CCN(S(=O)(=O)c2cccc(F)c2)CC1 [Compound 114, (R)-N-(4-fluorophenyl)-1-((3-fluorophenyl)sulfonyl)-1′-(hydroxymethyl)-7′-methoxy-9′-methyl-3′,9′-dihydrospiro [piperidine-4,4′-pyrido[3,4-b]indole]-2′(1′H)-carboxamide] | –
– | COc1ccc2c3c(n(C)c2c1)[C@H](CO)N(Cc1ccc(Cl)cc1)CC31CCN(CC2CC2)CC1 [Compound 88, (R)-(2′-(4-chlorobenzyl)-1-(cyclopropylmethyl)-7′-methoxy-9′-methyl-1′,2′,3′,9′-tetrahydrospiro [piperidine-4,4′-pyrido[3,4-b]indol]-1′-yl)methanol] | 1170 nM
1330 nM | COc1ccc2c3c([nH]c2c1)[C@H](CO)NCC31CCN(C(=O)Nc2ccccc2F)CC1 [Compound 26, (R)-N-(2-fluorophenyl)-1′-(hydroxymethyl)-7′-methoxy-1′,2′,3′,9′-tetrahydrospiro [piperidine-4,4′-pyrido[3,4-b]indole]-1-carboxamide] | –
468 nM | COc1ccc2c3c([nH]c2c1)[C@H](CCO)N(C(C)=O)CC31CCN(C(=O)Nc2ccccc2F)CC1 [Compound 73, (S)-2′-acetyl-N-(2-fluorophenyl)-1′-(2-hydroxyethyl)-7′-methoxy-1′,2′,3′,9′-tetrahydrospiro [piperidine-4,4′-pyrido[3,4-b]indole]-1-carboxamide] | –
2430 to 6330 nM | COc1ccc2c3c([nH]c2c1)[C@H](CN1CCOCC1)N(C(C)=O)CC31CCN(C(=O)OC(C)(C)C)CC1 [Compound 46, (S)-tert-butyl 2′-acetyl-7′-methoxy-1′-(morpholinomethyl)-1′,2′,3′,9′-tetrahydrospiro[piperidine-4,4′-pyrido[3,4-b]indole]-1-carboxylate] | –
1640 nM | COc1ccc(CN2CC3(C2)CN(C(=O)CN(C)C)[C@H](CO)c2[nH]c4cc(OC)ccc4c23)cc1 [Compound 97, (S)-2-(dimethylamino)-1-(1′-(hydroxymethyl)-7′-methoxy-1-(4-methoxybenzyl)spiro[azetidine-3,4′-pyrido[3,4-b]indol]-2′(1′H,3′H,9′H)-yl)ethanone] | –
9050 nM | COC[C@H]1c2[nH]c3cc(OC)ccc3c2C2(CCN(C(=O)Nc3ccccc3F)CC2)CN1C(C)=O [Compound 69, (R)-2′-acetyl-N-(2-fluorophenyl)-7′-methoxy-1′-(methoxymethyl)-1′,2′,3′,9′-tetrahydrospiro [piperidine-4,4′-pyrido[3,4-b]indole]-1-carboxamide] | –

SMILES | EC50 [1] | EC50
C=CCOC(=O)N1CC2(CCN(C(=O)OC(C)(C)C)CC2)c2c([nH]c3cc(OC)ccc23)[C@@H]1CO[Si](C)(C)C(C)(C)C [Compound 18, (R)-2′-allyl 1-tert-butyl 1′-(((tert-butyldimethylsilyl)oxy)methyl)-7′-methoxy-3′,9′-dihydrospiro[piperidine-4,4′-pyrido[3,4-b]indole]-1,2′(1′H)-dicarboxylate] | 763 nM | –
COc1ccc2c3c([nH]c2c1)[C@H](CO[Si](C)(C)C(C)(C)C)N(C(C)=O)CC31CCN(Cc2ccccc2F)CC1 [Compound 38, (R)-1-(1′-(((tert-butyldimethylsilyl)oxy)methyl)-1-(2-fluorobenzyl)-7′-methoxyspiro[piperidine-4,4′-pyrido[3,4-b]indol]-2′(1′H,3′H,9′H)-yl)ethanone] | 809 nM | –
COc1ccc2c3c([nH]c2c1)[C@H](CO[Si](C)(C)C(C)(C)C)N(C(C)=O)CC31CCN(CCc2ccccc2F)CC1 [Compound 19, (R)-1-(1′-(((tert-butyldimethylsilyl)oxy)methyl)-1-(2-fluorophenethyl)-7′-methoxyspiro[piperidine-4,4′-pyrido[3,4-b]indol]-2′(1′H,3′H,9′H)-yl)ethanone] | 1200 nM | –
COc1ccc2c3c(n(C)c2c1)[C@H](CO)NCC31CCN(Cc2ccc(-c3ccccn3)cc2)CC1 [Compound 79, (R)-(7′-methoxy-9′-methyl-1-(4-(pyridin-2-yl)benzyl)-1′,2′,3′,9′-tetrahydrospiro [piperidine-4,4′-pyrido[3,4-b]indol]-1′-yl)methanol] | 135 nM | –
COc1ccc2c3c([nH]c2c1)[C@H](CO[Si](C)(C)C(C)(C)C)N(C(=O)C(C)(C)C)CC31CCN(C(=O)Nc2ccccc2F)CC1 [Compound 22, (R)-1′-(((tert-butyldimethylsilyl)oxy)methyl)-N-(2-fluorophenyl)-7′-methoxy-2′-pivaloyl-l′,2′,3′,9′-tetrahydrospiro[piperidine-4,4′-pyrido[3,4-b]indole]-1-carboxamide] | 430 nM | –
COc1ccc2c3c(n(C)c2c1)[C@H](CO)N(C(=O)Nc1ccc(F)cc1)CC31CCN(Cc2cccnc2)CC1 [Compound 117, (R)-N-(4-fluorophenyl)-1′-(hydroxymethyl)-7′-methoxy-9′-methyl-1-(pyridin-3-ylmethyl)-3′,9′-dihydrospiro[piperidine-4,4′-pyrido[3,4-b]indole]-2′(1′H)-carboxamide] | 1610 nM | –
COc1ccc2c3c([nH]c2c1)[C@H](CO)N(Cc1ccccn1)CC31CCN(Cc2cccc(F)c2)CC1 [Compound 122] | 421 nM | –
COc1ccc2c3c(n(C)c2c1)[C@H](CO)N(C(=O)Nc1ccc(F)cc1)CC31CCN(C)CC1 [Compound 96, (R)-N-(4-fluorophenyl)-1′-(hydroxymethyl)-7′-methoxy-1,9′-dimethyl-3′,9′-dihydrospiro[piperidine-4,4′-pyrido[3,4-b]indole]-2′(1′H)-carboxamide] | 2870 nM | –
